Molecular target: Trypsin (Homo sapiens, UniProt P07477+P07478+P35030)
Experiment: Competitive inhibition of trypsin (unknown origin) using […] as substrate incubated for 20 mins prior to substrate addition by Dixon plot/ Lineweaver-Burk plot analysis
Assay type: protein assay

| Structure (SMILES) | Ki [µM] |
| --- | --- |
| CCCCCCCCC(CC)COC(=O)c1ccccc1C(=O)OCC(CC)CCCCCCCC (configuration not stated) | 12.1 |
| O=S(=O)(F)Cc1ccccc1 [PHENYLMETHYLSULFONYLFLUORIDE] | 10.01 |

Source: ChEMBL document CHEMBL2429800, “A new trypsin inhibitory phthalic acid ester from Heliotropium strigosum” (Med Chem Res, 2013)
